Experimental data published in the NIST ThermoML archive (doi:10.1016/j.jct.2010.01.009).
Several values for one entry are separate records, joined by “and”; a condition that tells them apart may be missing. Identical values can stand only once. ± gives the expanded uncertainty stated by the source.

Conditions: Crystal, Calculated from knudsen effusion weight loss

Structure (SMILES) | vapor or sublimation pressure (283.11 K) | vapor or sublimation pressure (285.13 K) | vapor or sublimation pressure (287.12 K) | vapor or sublimation pressure (289.13 K) | vapor or sublimation pressure (291.14 K) | vapor or sublimation pressure (293.13 K) | vapor or sublimation pressure (295.18 K) | vapor or sublimation pressure (297.15 K) | vapor or sublimation pressure (299.16 K) | vapor or sublimation pressure (271.14 K) | vapor or sublimation pressure (273.15 K) | vapor or sublimation pressure (275.17 K) | vapor or sublimation pressure (277.06 K) | vapor or sublimation pressure (279.15 K) | vapor or sublimation pressure (281.11 K) | vapor or sublimation pressure (283.19 K) | vapor or sublimation pressure (285.24 K) | vapor or sublimation pressure (287.13 K)
Cc1ccc(-n2cccc2)cc1 [1-(4-methylphenyl)-1H-pyrrole] | 0.00014 ± 7e-06 kPa and 0.000137 ± 7e-06 kPa | 0.000168 ± 8e-06 kPa and 0.000169 ± 8e-06 kPa and 0.000174 ± 9e-06 kPa | 0.00023 ± 1.2e-05 kPa and 0.000224 ± 1.1e-05 kPa and 0.00022 ± 1.1e-05 kPa | 0.000278 ± 1.4e-05 kPa and 0.000282 ± 1.4e-05 kPa and 0.000286 ± 1.4e-05 kPa | 0.000362 ± 1.8e-05 kPa and 0.000355 ± 1.8e-05 kPa | 0.000468 ± 2.3e-05 kPa and 0.000459 ± 2.3e-05 kPa and 0.000451 ± 2.3e-05 kPa | 0.000579 ± 2.9e-05 kPa and 0.000571 ± 2.9e-05 kPa and 0.000558 ± 2.8e-05 kPa | 0.000732 ± 3.7e-05 kPa and 0.000734 ± 3.7e-05 kPa | 0.000948 ± 4.7e-05 kPa and 0.000927 ± 4.6e-05 kPa and 0.000925 ± 4.6e-05 kPa | – | – | – | – | – | – | – | – | –
c1ccc(-n2cccc2)cc1 [1-phenylpyrrole] | – | – | – | – | – | – | – | – | – | 0.000151 ± 8e-06 kPa and 0.000147 ± 7e-06 kPa and 0.000143 ± 7e-06 kPa | 0.000191 ± 1e-05 kPa and 0.00019 ± 1e-05 kPa and 0.000185 ± 9e-06 kPa | 0.000255 ± 1.3e-05 kPa and 0.000247 ± 1.2e-05 kPa and 0.000241 ± 1.2e-05 kPa | 0.000336 ± 1.7e-05 kPa and 0.000311 ± 1.6e-05 kPa and 0.00033 ± 1.7e-05 kPa | 0.000426 ± 2.1e-05 kPa and 0.000414 ± 2.1e-05 kPa and 0.000397 ± 2e-05 kPa | 0.000537 ± 2.7e-05 kPa and 0.000525 ± 2.6e-05 kPa | 0.000682 ± 3.4e-05 kPa and 0.000678 ± 3.4e-05 kPa and 0.000651 ± 3.3e-05 kPa | 0.000905 ± 4.5e-05 kPa and 0.000887 ± 4.4e-05 kPa | 0.001123 ± 0.00012 kPa and 0.001111 ± 0.00011 kPa and 0.00106 ± 0.00011 kPa
